In patent US20040175383A1, “Methods and compositions for treatment of otitis media” (priority 2002, published 2004):
Read-outs that look alike come from different tables or passages of the source.

Key:
[1] = tested on: MMP activity (tMMP, predominantly MMPs 2 and 9) in MEE samples; test: MMP activity in human middle ear effusion samples in the presence of ilomastat (colorimetric synthetic substrate assay); type: biochemical; design: Inhibition of MMP activity, overall / Ilomastat-MMP Inhibition % (mean inhibition): concentration or dose not given beside the values; details: for Ilomastat-MMP Inhibition % (mean inhibition) / MMP >30% Inhibition (percent of samples that had enzyme activity inhibited by >30%): MEE samples
Excerpt: Human Subjects & Sample Collection: Middle ear effusion (MEE) samples were collected from all consenting patients that presented to the investigators for the treatment of OM. Most samples were taken from subjects at the time of myringotomy, with or without tube placement, for recurrent acute otitis media (RAOM) and chronic otitis media with effusion (COME). Less commonly, samples were collected upon presentation with acute post-tympanostomy otorrhea (APTO) or with chronic suppurative otitis media (CSOM). Samples were aspirated with a Juhn Tymp-Tap (Medtronic-Xomed, Jacksonville, Fla.). The aspiration device was rinsed—and sample diluted—with 500 μl of normal saline and immediately placed on ice for transport to the investigators' laboratories. Samples were centrifuged to remove cellular material then divided into aliquots and frozen until batch processing could be performed.
Protease and Inhibition Analysis: Active (aMMP) and proenzyme (pMMP) forms of MMPs 2 and 9 were measured using a gelatin zymography technique. MMP activity (tMMP, but predominantly MMPs 2 and 9) present in MEE samples was measured using a […] assay that uses a synthetic substrate that reduces Ellmans reagent upon cleavage. Because two different activity assays were used that detected different types and levels of MMPs, a direct comparison between aMMP, pMMP and tMMP was not considered valid. Human neutrophil elastase (HNE) activity was measured using a standard technique. Results were expressed as change in absorbance over time (mAU/min). […] Samples with excessive activity levels were tested by serial dilution. MMP activity was measured in the presence of physiologically deliverable levels of ilomastat.
Statistical Analysis: An analysis of variance was performed on the enzyme activities and mean inhibition of activities to determine if there were differences activities across diagnoses, middle ear findings. If there were statistically significant differences, […] tests were performed. […] The distribution of patients with an activities greater than 3 mAU/min and inhibition greater than 30% was tested using Fisher's exact test to determine if there was a difference in these distributions across diagnoses.

[2] = tested on: inner ear / hearing (electrocochleographic thresholds); test: Ototoxicity study in chinchilla with Eustachian tube obstruction, weekly transbullar injection of protease inhibitors; details: applied to the middle ear
Description: (§1) Prospective, randomized, controlled trial in the chinchilla model.
(§2) After completing baseline auditory testing and bilateral transpalatal obstruction of the Eustachian tube (ETO), chinchillas received weekly transbullar injections of protease inhibitor (alpha 1-antitrypsin, ilomastat, or both), vehicle, or saline. After one month, hearing was tested and the animals were sacrificed. Temporal bone histopathology was performed.
(§3) A total of 96 healthy adult chinchillas of either sex, 400-600 grams, were used in this experiment. Prior to entry into the study, all animals were otomicroscopically free of middle ear pathology. All animals underwent auditory testing and bilateral transpalatal obstruction of the Eustachian tube, followed by immediate transbullar injection (across the thin bone covering the dorsal aspect of the middle ear) of saline or vehicle solution, with or without protease inhibitor. Thus, there were five treatment groups: saline, vehicle solution, vehicle with alpha 1-antitrypsin (100 μg /ml), vehicle with ilomastat (100 μg /ml), and vehicle with alpha 1-antitrypsin and ilomastat (100 μg /ml of each). Weekly thereafter, animals received a light anesthetic for ear examinations, transbullar sampling of the middle ear fluid, and transbullar reinjection of saline or the vehicle +/− protease inhibitor. One month after ETO, animals were anesthetized, middle ear fluid was removed, and auditory testing was performed immediately prior to sacrifice. Temporal bones were harvested for histopathological analysis.
(§4) Ilomastat was prepared by substituting alpha 1-antitrypsin. Vehicle was similarly prepared, without the addition of any protease inhibitor. Injectable, 0.9% normal saline was used as the non-treatment control.
(§5) Briefly, the palate was split and the Eustachian tube orifices were bluntly palpated. The orifices were denuded of mucosa, the deeper tissues cauterized, and the lumen packed with Gelfoam sponge. The palate was reapproximated with a single layer of polyglycolic acid sutures.
(§6) Auditory Evaluation: Assessment of auditory thresholds was performed using electrocochleography. […] Electrocochleographic thresholds were measured for clicks and tone pips at 4, 8, 12, and 16 kHz. Stimulus generation was executed by an auditory electrophysiology workstation with SigGen™ and AeP™ software (Tucker-Davis Technologies, Gainesville, Fla.) and Etymotic transducers (ER-2, Elk Grove Village, Ill.). Stimuli were introduced with an insert earphone tube placed into the external auditory canal, just medial to the crus of the helix. Auditory thresholds were evaluated by decreasing stimulus intensity in 5 dB increments, from a maximum of 100 dB, until the waveform disappeared. At that point, the stimulus intensity was increased in 5 dB increments until the waveform re-emerged. […]

[3] = in vivo
Description: as §1, §2, §3, §4, §5, §6

[4] = tested on: inner ear / hearing (electrocochleographic thresholds); details: in vivo
Description: as §1, §2, §3, §4, §5, §6

[5] = tested on: acute otitis media induced by Streptococcus pneumoniae; type: in vivo, chinchilla
Description: All study animals were initially anesthetized to allow baseline hearing testing (electrocochleography and tympanometry) and to allow bacteria (Streptococcus pneumoniae) to be injected across the thin bone covering the middle ear (dorsal bulla) to induce a middle ear infection bilaterally. After allowing the inflammation to become established for 3 to 4 days, the ears were graded for severity of middle ear inflammation. Half the ears were injected with alpha 1-antitrypsin (100 mg/ml)half with saline. All animals received systemic antibacterial treatment (enrofloxacin). […] Assessment was given quantiatively according to the following table: [table] Hearing assessment were also performed throughout the study and following euthanasia at the end of study, temporal bone specimens were obtained from all ears for histopathological analysis.

Compound: CNC(=O)[C@H](Cc1c[nH]c2ccccc12)NC(=O)[C@@H](CC(=O)NO)CC(C)C [Ilomastat, N-[2(R)-2(hydroxyamidocarbonylmethyl)-4-methylpentanoyl]-L-tryptophan methyl amide]
- Ilomastat-MMP Inhibition % (mean inhibition) ([1]; diagnosis APTO): 41.2%
- MMP >30% Inhibition (percent of samples that had enzyme activity inhibited by >30%) ([1]; diagnosis APTO): 57%
- Ilomastat-MMP Inhibition % (mean inhibition) ([1]; diagnosis COME): 70.0%
- MMP >30% Inhibition (percent of samples that had enzyme activity inhibited by >30%) ([1]; diagnosis COME): 86%
- Ilomastat-MMP Inhibition % (mean inhibition) ([1]; diagnosis CSOM): 51.5%
- MMP >30% Inhibition (percent of samples that had enzyme activity inhibited by >30%) ([1]; diagnosis CSOM): 40%
- Ilomastat-MMP Inhibition % (mean inhibition) ([1]; diagnosis Cholesteatoma): 31.5%
- MMP >30% Inhibition (percent of samples that had enzyme activity inhibited by >30%) ([1]; diagnosis Cholesteatoma): 71%
- Ilomastat-MMP Inhibition % (mean inhibition) ([1]; diagnosis RAOM): 85.5%
- MMP >30% Inhibition (percent of samples that had enzyme activity inhibited by >30%) ([1]; diagnosis RAOM): 100%
- Ilomastat-MMP Inhibition % (mean inhibition) ([1]; diagnosis RAOM/COME): 81.4%
- MMP >30% Inhibition (percent of samples that had enzyme activity inhibited by >30%) ([1]; diagnosis RAOM/COME): 100%
- Percent of MEEs with significant inhibition (>30% reduction) of MMP activity ([1]; MEEs with significant MMP activity (>3 mAU/min)): 80%
- Inhibition of MMP activity, overall ([1]; all MEE samples): 64%
- Ototoxicity in the chinchilla model [2]: lack ototoxicity
- Persistence of middle ear effusion at the final treatment day (percent of ears) [3]: 83%

Compound: rAAT: Recombinant alpha 1-antitrypsin, a serine protease inhibitor, expressed in recombinant yeast cells and purified by column chromatography
- Persistence of middle ear effusion at the final treatment day (percent of ears) [3]: 100%
- Ototoxicity in the chinchilla model [4]: lack ototoxicity
- TM Score ([5]; Day 1, otomicroscopic scale 0 (normal) to 6 (perforated)): 0
- TM Score ([5]; Day 4, scale 0-6): 2.167
- TM Score ([5]; Day 6, scale 0-6): 4.17
- TM Score ([5]; Day 8, scale 0-6): 3.5
- TM Score ([5]; Day 10, scale 0-6): 2.8
- TM Score ([5]; Day 14, scale 0-6): 1.25
- TM Score ([5]; Day 16, scale 0-6): 0.75
- TM Score ([5]; Day 18, scale 0-6): 0.5
- TM Score ([5]; Day 20, scale 0-6): 0.5
- TM Score ([5]; Day 22, scale 0-6): 0
- TM Score ([5]; Day 24, scale 0-6): 0
- TM Score ([5]; Day 26, scale 0-6): 0
- TM Score ([5]; Day 28, scale 0-6): 0
- Middle ear inflammation by otomicroscopy, compared with saline ([5]; otic administration, with systemic enrofloxacin): mitigated the inflammatory process more rapidly than saline
- Time to resolution of clinical manifestations of otitis media ([5]; single application of rAAT, control 26 days): 22 days
